# Test results from patent publication US20150037397A1, “PHARMACEUTICAL COMPOSITIONS OF PYRIDINIUM AND QUINOLINIUM DERIVATIVES” (TRASLATIONAL CANCER DRUGS PHARMA, S.L., priority 2010, published 2015).
# What was measured:
# [1] = pH solubility profiling in Titrisol buffers (HPLC after filtration); type: physicochemical; settings: 24 h, room temperature
# Protocol: The pH solubility profile of compound TCD717 (compound No. 6, Q=Br) was assessed at pH 2-8. […] The TCD717 concentration after filtration through a 0.22 μm pore size PVDF filter was determined using HPLC.
# [2] = Solubility testing in lipophilic and amphiphilic vehicles; type: physicochemical
# Protocol: The solubility of TCD717 was determined in selected vehicles. […] The undissolved fraction of TCD717 was separated by filtration through a 0.22 μm pore size PVDF filter, and the filtrate was diluted before analyzing the TCD717 content by HPLC.
# [3] = type: physicochemical
# Protocol: The solubility of solid TCD717 at room temperature in prototype vehicles suitable for intravenous formulation and the behavior after five-fold dilution with 0.9% NaCl solutions was tested. Formulations were prepared by dissolving the components in water at the indicated concentration.
# [4] = Solubility in simulated biological media and dilution media; type: physicochemical; settings: for Solubility of TCD717: 24 h stirring, room temperature
# [5] = Solubility in saline solutions at different NaCl concentrations; type: physicochemical; settings: NaCl 2, 5, 10, 20, 100 and 165 mM (FIG. 2)
# Protocol: To obtain a greater insight on the sensitivity of the solubility for sodium and chloride ions, the solubility of TCD717 was tested in saline solutions at NaCl concentrations of 2, 5, 10, 20, 100 and 165 mM NaCl.
# [6] = Chemical stability of TCD717 in solution under stress conditions; type: physicochemical
# Source text: The chemical stability of TCD717 (compound No. 6, Q=Br) in solution (which comprises MeOH/water 3:1 v/v and additional stress elements, as indicated in the Table) under various stress conditions is provided in the following Table.
compound,measurement,setting,value
CN(c1ccc(Cl)cc1)c1cc[n+](Cc2ccc(-c3ccc(C[n+]4ccc(N(C)c5ccc(Cl)cc5)c5ccccc54)cc3)cc2)c2ccccc12.[Br-].[Br-] [TCD717],TCD717 concentration (solubility),"[1]; Boron acid/HCl/NaOH 110 mM (Tritrisol), buffer pH 8",0.003 mg/mL
same,TCD717 concentration (solubility),"[1]; Citrate/HCl 30 mM (Tritrisol), buffer pH 2",0.045 mg/mL
same,TCD717 concentration (solubility),"[1]; Citrate/HCl 40 mM (Tritrisol), buffer pH 3",0.032 mg/mL
same,TCD717 concentration (solubility),"[1]; Citrate/HCl 56 mM (Tritrisol), buffer pH 4",0.008 mg/mL
same,TCD717 concentration (solubility),"[1]; Citrate/NaOH 60 mM (Tritrisol), buffer pH 6",0.062 mg/mL
same,TCD717 concentration (solubility),"[1]; Citrate/NaOH 96 mM (Tritrisol), buffer pH 5",0.006 mg/mL
same,TCD717 concentration (solubility),"[1]; Phosphate (K + Na+) 67 mM (Tritrisol), buffer pH 7",0.86 mg/mL
same,TCD717 concentration (solubility),"[1]; Water, suspended at 5 mg/ml",0.200 mg/mL
same,Solubility,"[2]; Cremophor EL35, at least 24 h at 45° C.",0.78 mg/g
same,Solubility,"[2]; Miglyol 812, at least 24 h at 45° C.",0.002 mg/g
same,Solubility,"[2]; Solutol HS15, at least 24 h at 45° C.",2.3 mg/g
same,Affinity for detergents,[2]; Solutol HS 15 and Tween 80,low affinity
same,Solubility,"[2]; Soya oil, at least 24 h at 45° C.",0.015 mg/g
same,Solubility,"[2]; Tween 80, at least 24 h at 45° C.",3.1 mg/g
same,Solubility,[2]; soy oil and Miglyol,very low
same,Solubilization potential of the solubilizing agent for TCD717,[3],highest solubilization potential
same,Precipitation after dilution,"[3]; HP-β-CD composition, five-fold dilution with 0.9% NaCl solutions",no precipitation
same,Solubility of TCD717,[4]; Glucose 5% (w/v),0.260 mg/mL
same,Solubility of TCD717,[4]; Human Serum Albumin 2% (w/v),0.275 mg/mL
same,Solubility of TCD717,[4]; Saline 0.9% (w/v),0.009 mg/mL
same,Solubility of TCD717,[4]; Water,0.200 mg/mL
same,Solubility in aqueous NaCl 0.9%,[4]; aqueous NaCl 0.9%,9 µg/mL
same,Solubility in water,[4]; water at 25° C.,0.2 mg/mL
same,Aqueous solubility as a function of NaCl concentration,[5],decreases at NaCl concentrations above 20 mM
same,Observation (chemical stability),"[6]; MeOH/water 3:1 v/v, 0.1M HCl/1 day",No degradation observed
same,"Observation (chemical stability), degradation","[6]; MeOH/water 3:1 v/v, 0.1M NaOH/1 day",Some degradation (~6%)
same,Observation (chemical stability),"[6]; MeOH/water 3:1 v/v, 3% H2O2 + 0.1M HCl",Complete degradation
same,Observation (chemical stability),"[6]; MeOH/water 3:1 v/v, 3% H2O2 + 0.1M NaOH",Complete degradation
same,Observation (chemical stability),"[6]; MeOH/water 3:1 v/v, 3% H2O2/1 day",No degradation observed
same,Stability,[6]; combinations of acidic/oxidizing and basic/oxidizing conditions,very unstable
same,Stability,[6]; under basic conditions,only moderately stable
